Values of other authors in US20070136825A1, “Fusion proteins useful for detecting analytes” (priority 2001, published 2007).
pKd: −log10 of the molar value.

Conditions: glucose; GGBP alone; Zukin et al.; read-out: Kd Binding protein, glucose

GGBP: glucose/galactose binding protein (mglB, E. coli), SEQ ID NO:4
pKd: 6.68
